# What was measured:
# [1] = Ex vivo biodistribution in Balb/C mice with absorbed doses extrapolated to adult human male (OLINDA/EXM); conditions: mouse
# Procedure: For ex vivo biodistribution and dosimetry evaluation, each BALB/C mouse was injected with 1.85 MBq of ^68Ga-NEB. At different time points after tracer injection (5 min, 30 min, 1 h, 3 h and 6 h, n=5/time point), the mice were sacrificed for tissue and organ collection, including blood, muscle, bone, liver, kidneys, spleen, pancreas, stomach, intestine, heart and lung. The samples were wet weighed, and measured for radioactivity in a γ-counter (Wallac 1470-002, Perkin-Elmer). The results were presented as percentage injected dose per gram of tissue (% ID/g). For each mouse, the radioactivity of the tissue samples was calibrated against a known aliquot of the injected tracer and normalized to a mean body mass of each group. Values were expressed as mean±SD (n=5/group). Determination of organ doses for a reference human was made using the OLINDA/EXM program (Vanderbilt University, Nashville, Tenn.).
# In order to estimate the safe dose for clinical use, an ex vivo biodistribution study was performed in normal Balb/C mice. Absorbed doses for major organs and whole body were then extrapolated to adult human male of a body weight of 73.7 Kg using OLINDA EXM software. The kidneys received the highest absorbed doses (mean absorbed dose, 0.104˜0.135 mSv/MBq), resulting from abundant blood supply and tracer excretion through the renal urinary tract. The mean effective dose of ^68Ga-NEB was 0.0151 to 0.0159 mSv/MBq. With an injected dose of 185 MBq (5 mCi), the patient would be exposed to an effective radiation dose of 2.94 mSv, which is much lower than the dose limit of 20 mSv for the second risk category defined by the 2007 International Commission on Radiological Protection.
# [2] = Safety observation in healthy volunteers and patients; format: in vivo, human
# Text: Dosimetry study confirmed the safety with acceptable absorbed doses by critical organs even with multiple injections for one patient.
# (§1) This clinical study was approved by the Institute Review Board of Peking Union Medical College Hospital, Chinese Academy of Medical Sciences and Peking Union Medical College. Three healthy volunteers (2 males and 1 female) were enrolled with written informed consent to validate the safety of ^68Ga-NEB. No fasting, hydration or other specific preparation was requested on the day of imaging. Any unusual or adverse clinical symptoms were recorded on the day of imaging and during the 2-week follow-up period.
# Vessel branches in and out of major organs and limbs can also be clearly identified.
# [3] = Multiple time point whole-body PET in healthy volunteers (SUV); format: in vivo, human
# Procedure: as §1
# All three healthy volunteers underwent whole-body PET acquisitions (Biograph mCT PET/CT system, Siemens) at multiple time points after tracer injection. After the whole-body low-dose CT scan (140 kV, 35 mA, pitch 1:1, layer 5 mm, layer spacing 3 mm, matrix 512×512, FOV 70 cm), 111-148 MBq (3-4 mCi) of ^68Ga-NEB was injected intravenously. The whole body (from the top of skull to the middle of femur) of each volunteer was covered by 7 bed positions. The acquisition duration was 40 sec/bed position for the 5 min, 10 min and 15 min time points, 2 min/bed position for the 30 min, 45 min, 60 min, 75 min and 90 min time points.
# A Siemens MMWP workstation was used for post-processing. Visual analysis was used to determine the general biodistribution and the temporal and inter-subject stability. The volume of interest (VOI) of 12 normal organs/tissues and concerned lesions were drawn on the serial images. The radioactivity concentration and standardized uptake value (SUV) in the VOIs were obtained through the software. Organ dosimetry was calculated by using organ-level internal dose assessment software. All quantitative data were expressed as mean±standard deviation.
# From 5 to 90 min, no dramatic distribution change was observed, confirming the in vivo stability and long blood pool retention of ^68Ga-NEB (FIG. 28). Increased bladder accumulation was observed over time.
smiles,measurement,setting,value
Cc1cc(-c2ccc(NC(=O)CN3CCN4CCN(CC3)CC(=O)[O][68GaH][O]C(=O)C4)c(C)c2)ccc1N=Nc1ccc2c(S(=O)(=O)O)cc(S(=O)(=O)O)c(N)c2c1O [^68Ga-NEB],"Absorbed Dose, Adrenals",[1]; BALB/c,0.0137~0.0141 mSv/MBq
same,"Absorbed Dose, Breasts",[1]; BALB/c,0.00881~0.01 mSv/MBq
same,"Absorbed Dose, Gallbladder Wall",[1]; BALB/c,0.0147~0.0149 mSv/MBq
same,"Absorbed Dose, Heart Wall",[1]; BALB/c,0.0329~0.0453 mSv/MBq
same,"Absorbed Dose, LLI Wall",[1]; BALB/c,0.0104~0.0119 mSv/MBq
same,"Absorbed Dose, Liver",[1]; BALB/c,0.0444~0.0575 mSv/MBq
same,"Absorbed Dose, Lungs",[1]; BALB/c,0.0197~0.0236 mSv/MBq
same,"Absorbed Dose, Muscle",[1]; BALB/c,0.00946~0.011 mSv/MBq
same,"Absorbed Dose, Osteogenic Cells",[1]; BALB/c,0.0133~0.0153 mSv/MBq
same,"Absorbed Dose, Ovaries",[1]; BALB/c,0.0108~0.0122 mSv/MBq
same,"Absorbed Dose, Pancreas",[1]; BALB/c,0.0625~0.0821 mSv/MBq
same,"Absorbed Dose, Red Marrow",[1]; BALB/c,0.00882~0.00973 mSv/MBq
same,"Absorbed Dose, Skin",[1]; BALB/c,0.00804~0.00925 mSv/MBq
same,"Absorbed Dose, Small Intestine",[1]; BALB/c,0.0114~0.0128 mSv/MBq
same,"Absorbed Dose, Spleen",[1]; BALB/c,0.0263~0.0317 mSv/MBq
same,"Absorbed Dose, Stomach Wall",[1]; BALB/c,0.0117~0.0127 mSv/MBq
same,"Absorbed Dose, Testes",[1]; BALB/c,0.00896~0.0103 mSv/MBq
same,"Absorbed Dose, Thymus",[1]; BALB/c,0.0101~0.0112 mSv/MBq
same,"Absorbed Dose, Thyroid",[1]; BALB/c,0.00936~0.0107 mSv/MBq
same,"Absorbed Dose, Total Body",[1]; BALB/c,0.0146~0.0146 mSv/MBq
same,"Absorbed Dose, ULI Wall",[1]; BALB/c,0.0115~0.0128 mSv/MBq
same,"Absorbed Dose, Urinary Bladder Wall",[1]; BALB/c,0.0102~0.0117 mSv/MBq
same,"Absorbed Dose, Uterus",[1]; BALB/c,0.0108~0.0123 mSv/MBq
same,Effective Dose Equivalent,[1]; BALB/c,0.0251~0.0297 mSv/MBq
same,effective radiation dose to the patient,[1],2.94 mSv
same,"reported discomfort, adverse clinical events, toxicity, allergies",[2]; all healthy volunteers and patients,"no discomfort or adverse clinical events, no elicited toxicity, and no allergies"
same,adverse symptoms during the entire procedure and 2 weeks follow-up,"[2]; healthy volunteers, mean injected dose 3.77±0.28 mCi",no adverse symptoms were noticed and/or reported
same,"average standardized uptake value, Blood",[3]; 5 min after i.v.,7.97 ± 0.15
same,"average standardized uptake value, Bone",[3]; 5 min after i.v.,2.10 ± 0.26
same,"average standardized uptake value, Kidneys",[3]; 5 min after i.v.,4.40 ± 0.26
same,"average standardized uptake value, Liver",[3]; 5 min after i.v.,3.80 ± 0.44
same,"average standardized uptake value, Lung",[3]; 5 min after i.v.,1.53 ± 0.15
same,"average standardized uptake value, Muscle",[3]; 5 min after i.v.,0.53 ± 0.21
same,"average standardized uptake value, Pancreas",[3]; 5 min after i.v.,2.13 ± 0.40
same,"average standardized uptake value, S. Intestine",[3]; 5 min after i.v.,1.73 ± 0.25
same,"average standardized uptake value, Spleen",[3]; 5 min after i.v.,4.10 ± 0.36
same,"average standardized uptake value, Stomach",[3]; 5 min after i.v.,1.23 ± 0.15
same,"average standardized uptake value, Blood",[3]; 10 min after i.v.,7.53 ± 0.25
same,"average standardized uptake value, Bone",[3]; 10 min after i.v.,1.93 ± 0.12
same,"average standardized uptake value, Kidneys",[3]; 10 min after i.v.,4.23 ± 0.49
same,"average standardized uptake value, Liver",[3]; 10 min after i.v.,3.70 ± 0.61
same,"average standardized uptake value, Lung",[3]; 10 min after i.v.,1.47 ± 0.29
same,"average standardized uptake value, Muscle",[3]; 10 min after i.v.,0.60 ± 0.10
same,"average standardized uptake value, Pancreas",[3]; 10 min after i.v.,2.03 ± 0.15
same,"average standardized uptake value, S. Intestine",[3]; 10 min after i.v.,1.57 ± 0.12
same,"average standardized uptake value, Spleen",[3]; 10 min after i.v.,4.07 ± 0.47
same,"average standardized uptake value, Stomach",[3]; 10 min after i.v.,1.50 ± 0.20
same,"average standardized uptake value, Blood",[3]; 15 min after i.v.,7.17 ± 0.35
same,"average standardized uptake value, Bone",[3]; 15 min after i.v.,1.83 ± 0.15
same,"average standardized uptake value, Kidneys",[3]; 15 min after i.v.,4.03 ± 0.50
same,"average standardized uptake value, Liver",[3]; 15 min after i.v.,3.73 ± 0.59
same,"average standardized uptake value, Lung",[3]; 15 min after i.v.,1.4 ± 0.17
same,"average standardized uptake value, Muscle",[3]; 15 min after i.v.,0.60 ± 0.17
same,"average standardized uptake value, Pancreas",[3]; 15 min after i.v.,1.90 ± 0.26
same,"average standardized uptake value, S. Intestine",[3]; 15 min after i.v.,1.73 ± 0.12
same,"average standardized uptake value, Spleen",[3]; 15 min after i.v.,4.00 ± 0.52

# Source: US10258701B2, “Labeled evans blue dye derivative for in vivo serum albumin labeling” (The United States of America, as represented by the …, priority 2015, dated 2019)
